Measurements published in the supplement of paper PMC10307832.

Columns and labels:
Experiment in all cases: relative viability (nuclei count vs DMSO), 5 days (fraction); higher = more cells survive
[1] = compound: C1CNCCC1C2=CC(=NN2)C3=CC=NC=C3 + CS(=O)(=O)CCNCc1ccc(-c2ccc3ncnc(Nc4ccc(OCc5cccc(F)c5)c(Cl)c4)c3c2)o1 [Lapatinib] (partner 2 µM)
Outline: (§1)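 Lung cancer cell lines were pin-tool dosed in 1536-well plates on the day after seeding, with either a lone drug or a fixed anchor-drug dose plus five library-drug doses (not always all listed) in √10 steps. Nuclei were counted on 4× images after 5 days. Relative viability is the ratio of treated-well to vehicle-well nuclei counts, with each value a median of duplicate plates.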

[2] = compound: O[C@H]1CC[C@H](Nc2ncc3nc(Nc4c(F)cc(F)cc4F)n([C@H]4CCOC4)c3n2)CC1 [Tanzisertib] + COc1cccc2cc(-c3nc([C@H]4CC[C@H](C(=O)O)CC4)n4ncnc(N)c34)[nH]c12 [OSI-027] (partner 0.5 µM)
Outline: as §1

[3] = compound: C1CNCCC1C2=CC(=NN2)C3=CC=NC=C3 + CCNC(=O)c1noc(-c2cc(C(C)C)c(O)cc2O)c1-c1ccc(CN2CCOCC2)cc1 [Luminespib] (partner 0.01 µM)
Outline: as §1

[4] = compound: C[C@@H](N)c1ccc(C(=O)Nc2ccnc3[nH]ccc23)cc1 + CC1(C)CCC(c2ccc(Cl)cc2)=C(CN2CCN(c3ccc(C(=O)NS(=O)(=O)c4ccc(N[C@H](CCN5CCOCC5)CSc5ccccc5)c(S(=O)(=O)C(F)(F)F)c4)cc3)CC2)C1 [Navitoclax] (partner 0.5 µM)
Outline: as §1

Cell Line | relative viability ([1]; first compound 0.08 µM) | relative viability ([1]; first compound 0.8 µM) | relative viability ([1]; first compound 2.53 µM) | relative viability ([1]; first compound 8 µM) | relative viability ([2]; first compound 0.08 µM) | relative viability ([2]; first compound 0.253 µM) | relative viability ([2]; first compound 0.8 µM) | relative viability ([2]; first compound 2.53 µM) | relative viability ([2]; first compound 8 µM) | relative viability ([3]; first compound 0.08 µM) | relative viability ([3]; first compound 0.8 µM) | relative viability ([3]; first compound 2.53 µM) | relative viability ([3]; first compound 8 µM) | relative viability ([4]; first compound 0.04 µM) | relative viability ([4]; first compound 0.1265 µM) | relative viability ([4]; first compound 0.4 µM) | relative viability ([4]; first compound 1.265 µM) | relative viability ([4]; first compound 4 µM)
PC-14 | 0.348 | 0.304 | 0.318 | 0.38 | 1.28 | 0.745 | 0.723 | 0.816 | 0.427 | 0.151 | 0.162 | 0.18 | 0.151 | 0.963 | 1.04 | 0.984 | 0.935 | 0.808
NCI-H2085 | 0.877 | 0.51 | 0.819 | 0.772 | 0.937 | 0.666 | 0.804 | 0.705 | 0.515 | 0.412 | 0.38 | 0.498 | 0.435 | 1.23 | 1.14 | 1.19 | 1.09 | 1
NCI-H2170 | 0.247 | 0.28 | 0.269 | 0.291 | 0.765 | 0.771 | 0.729 | 0.735 | 0.588 | 0.534 | 0.739 | 0.737 | 0.567 | 0.682 | 0.564 | 0.57 | 0.61 | 0.479
NCI-H1395 | 0.886 | 0.876 | 0.987 | 1.18 | 0.697 | 0.714 | 0.622 | 0.692 | 0.518 | 0.771 | 0.692 | 0.563 | 0.764 | 1.04 | 1.32 | 1.11 |  | 0.876
NCI-H2126 | 0.738 | 0.752 | 0.812 | 0.741 | 0.8 | 0.723 | 0.742 | 0.614 | 0.548 | 0.813 | 0.975 | 0.959 | 0.917 | 0.885 | 0.824 | 0.908 | 0.885 | 0.816
H3255 | 0.265 | 0.255 | 0.262 | 0.261 | 0.513 | 0.644 | 0.659 | 0.479 | 0.48 | 0.755 | 0.955 | 1.15 | 1.08 | 0.554 | 0.846 | 0.769 | 0.575 | 0.45
HCC-15 | 0.849 | 0.953 | 0.871 | 0.823 | 0.834 | 0.652 | 0.735 | 0.606 | 0.327 | 0.324 | 0.347 | 0.345 | 0.205 | 0.712 | 0.689 | 0.738 |  | 0.645
NCI-H2009 | 0.998 | 1.01 | 1.07 | 0.888 | 0.776 | 0.668 | 0.594 | 0.73 | 0.705 | 0.995 | 1.09 | 1.02 | 1.01 | 1.03 | 1.13 | 1.05 | 1.01 | 0.801
HCC-44 | 1.04 | 1.14 | 1.04 | 0.966 | 0.665 | 0.557 | 0.546 | 0.561 | 0.353 | 0.923 | 1.58 | 1.32 | 1.06 | 0.979 | 0.99 | 1.15 | 0.946 | 0.698
COR-L23 | 0.989 | 1.3 | 0.98 | 1.01 | 0.892 | 0.757 | 0.704 | 0.842 | 0.732 | 0.481 | 0.838 | 0.64 | 0.671 | 1.03 | 1.16 | 0.886 | 0.766 | 0.481
EMC-BAC-2 | 0.682 | 0.927 | 0.897 | 0.87 | 0.404 | 0.383 | 0.383 | 0.37 | 0.363 | 0.882 | 1.16 | 1.28 | 1.14 | 1.28 | 1.18 | 1.21 | 1.4 | 0.977
LK-2 | 0.768 | 0.791 | 1.06 | 0.83 | 0.26 | 0.209 | 0.193 | 0.16 | 0.186 | 0.176 | 0.19 | 0.214 | 0.226 | 0.976 | 1.18 | 0.927 | 0.82 | 0.762
SW 1573 | 1.03 | 1.21 | 1.17 | 1.25 | 0.829 | 0.594 | 0.558 | 0.592 | 0.484 |  | 0.215 | 0.244 | 0.189 | 1.14 | 0.927 | 1.12 | 0.774 | 0.426
NCI-H2405 | 1.12 | 1.01 | 1.12 | 1.16 | 0.7 | 0.596 | 0.682 | 0.703 | 0.532 | 0.616 | 0.584 | 0.875 | 0.544 |  | 0.799 | 0.513 | 0.41 | 0.279
NCI-H2087 | 1.25 | 1.26 | 0.944 | 0.948 | 0.564 | 0.578 | 0.712 | 0.521 | 0.338 | 0.145 | 0.178 | 0.281 | 0.254 | 0.911 | 0.917 | 0.903 | 0.903 | 0.855
NCI-H460 | 0.68 | 1.4 | 1.11 | 1.03 | 0.664 | 0.683 | 0.549 | 0.624 | 0.502 | 0.0398 | 0.0336 | 0.0427 | 0.0305 | 1.16 | 1.08 | 1.22 | 1.14 | 0.825
LOU-NH91 | 0.766 | 0.739 | 0.826 | 0.854 | 0.785 | 0.758 | 0.756 | 0.671 | 0.489 | 0.368 | 0.339 | 0.334 | 0.399 | 0.61 | 0.679 | 0.602 | 0.615 | 0.615
NCI-H1651 | 0.673 | 0.863 | 0.724 | 0.949 | 0.712 | 0.58 | 0.833 | 0.614 | 0.678 | 0.719 | 1.11 | 0.807 | 0.838 | 1.07 | 1 | 1.11 | 1.26 | 1.11
